Results reported in ChEMBL document CHEMBL1909046, “DrugMatrix in vitro pharmacology data”.

Experiments:
[1] = biological target: Beta-2 adrenergic receptor (Homo sapiens, UniProt P07550); assay: DRUGMATRIX: Adrenergic beta2 radioligand binding (ligand: [3H] CGP-12177); format: cell membranes, Membrane; settings: cho; Not Active = under 50% inhibition at 10 µM
[2] = DRUGMATRIX: Tumor Necrosis Factor (TNF), Non-Selective radioligand binding (ligand: [125I] TNF-alpha); format: cell membranes, Membrane; settings: u-937; Not Active = under 50% inhibition at 10 µM
[3] = biological target: T1, Vasoactive intestinal polypeptide receptor 1 (Homo sapiens, UniProt P32241); format: cell membranes, Membrane; settings: ht-29; further: in other assays of this panel Not Active means under 50% inhibition at 10 µM
T1 sequence (P32241 whole entry): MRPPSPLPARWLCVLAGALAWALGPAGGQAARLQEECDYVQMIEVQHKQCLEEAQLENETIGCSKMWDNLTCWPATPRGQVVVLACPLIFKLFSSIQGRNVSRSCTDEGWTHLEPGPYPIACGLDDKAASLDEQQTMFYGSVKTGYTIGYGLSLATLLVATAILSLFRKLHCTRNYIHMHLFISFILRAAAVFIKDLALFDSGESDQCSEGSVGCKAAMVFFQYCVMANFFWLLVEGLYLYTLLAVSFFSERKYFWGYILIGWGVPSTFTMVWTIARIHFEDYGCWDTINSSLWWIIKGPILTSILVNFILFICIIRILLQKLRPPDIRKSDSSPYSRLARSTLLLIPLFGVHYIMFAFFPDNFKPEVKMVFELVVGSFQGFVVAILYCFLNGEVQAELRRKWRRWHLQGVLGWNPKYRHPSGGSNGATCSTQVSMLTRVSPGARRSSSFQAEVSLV

[4] = biological target: T2, Cholecystokinin receptor type A (Homo sapiens, UniProt P32238); format: cell membranes, Membrane; settings: 1321-n1; further: in other assays of this panel Not Active means under 50% inhibition at 10 µM
T2 sequence (P32238 whole entry): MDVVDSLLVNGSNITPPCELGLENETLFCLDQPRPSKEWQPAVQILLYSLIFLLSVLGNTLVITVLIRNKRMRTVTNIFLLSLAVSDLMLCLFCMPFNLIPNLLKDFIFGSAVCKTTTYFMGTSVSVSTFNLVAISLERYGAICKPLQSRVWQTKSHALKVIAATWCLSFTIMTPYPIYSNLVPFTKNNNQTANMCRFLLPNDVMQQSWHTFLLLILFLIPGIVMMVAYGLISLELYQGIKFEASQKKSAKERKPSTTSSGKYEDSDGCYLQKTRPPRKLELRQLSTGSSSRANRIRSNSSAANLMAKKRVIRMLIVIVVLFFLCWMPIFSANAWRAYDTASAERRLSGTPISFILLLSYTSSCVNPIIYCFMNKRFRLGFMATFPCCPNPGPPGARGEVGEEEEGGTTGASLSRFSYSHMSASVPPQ

[5] = DRUGMATRIX: GABAA, Muscimol, Central radioligand binding (ligand: [3H] Muscimol); format: cell membranes, Rattus norvegicus, Wistar, Brain, Membrane; settings: Not Active = under 50% inhibition at 10 µM
Melanocortin receptor 5 = Melanocortin receptor 5 (Homo sapiens, UniProt P33032); format: cell membranes, HEK293, Membrane; settings: hek293; further: in other assays of this panel Not Active means under 50% inhibition at 10 µM
Chain of Melanocortin receptor 5 (P33032 whole entry): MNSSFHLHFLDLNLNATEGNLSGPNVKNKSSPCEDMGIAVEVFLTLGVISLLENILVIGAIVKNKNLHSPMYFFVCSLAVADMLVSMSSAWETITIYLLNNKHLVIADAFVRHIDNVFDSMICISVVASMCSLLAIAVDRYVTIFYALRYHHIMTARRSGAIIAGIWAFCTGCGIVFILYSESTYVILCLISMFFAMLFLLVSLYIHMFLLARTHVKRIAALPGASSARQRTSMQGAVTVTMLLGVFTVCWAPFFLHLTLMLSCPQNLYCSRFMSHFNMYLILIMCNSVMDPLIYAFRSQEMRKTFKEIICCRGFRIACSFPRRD

[6] = biological target: T3, Amine oxidase [flavin-containing] A (Homo sapiens, UniProt P21397); assay: DRUGMATRIX: Monoamine Oxidase MAO-A enzyme inhibition (substrate: Kynuramine); parameters: species or system BTI-TN-5B1-4; settings: bti-tn-5b1-4; Not Active = under 50% inhibition at 10 µM
T3 sequence (P21397 whole entry): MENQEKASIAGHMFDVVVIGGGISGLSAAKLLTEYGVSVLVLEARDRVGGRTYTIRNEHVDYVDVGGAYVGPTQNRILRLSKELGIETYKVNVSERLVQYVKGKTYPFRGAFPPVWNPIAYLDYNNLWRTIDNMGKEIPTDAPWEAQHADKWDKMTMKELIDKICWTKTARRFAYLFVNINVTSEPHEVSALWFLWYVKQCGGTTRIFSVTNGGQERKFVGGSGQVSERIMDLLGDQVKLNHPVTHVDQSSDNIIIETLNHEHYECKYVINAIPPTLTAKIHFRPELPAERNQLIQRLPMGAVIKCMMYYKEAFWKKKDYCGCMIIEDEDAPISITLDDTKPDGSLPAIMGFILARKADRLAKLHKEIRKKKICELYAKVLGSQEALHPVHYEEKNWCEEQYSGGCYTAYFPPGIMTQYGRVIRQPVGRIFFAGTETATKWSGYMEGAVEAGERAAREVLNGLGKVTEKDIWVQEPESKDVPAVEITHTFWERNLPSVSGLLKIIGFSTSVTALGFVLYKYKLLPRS

[7] = biological target: T4, Neuropeptide Y receptor type 1 (Homo sapiens, UniProt P25929); format: cell membranes, Membrane; settings: sk-n-mc; further: in other assays of this panel Not Active means under 50% inhibition at 10 µM
T4 sequence (P25929 whole entry): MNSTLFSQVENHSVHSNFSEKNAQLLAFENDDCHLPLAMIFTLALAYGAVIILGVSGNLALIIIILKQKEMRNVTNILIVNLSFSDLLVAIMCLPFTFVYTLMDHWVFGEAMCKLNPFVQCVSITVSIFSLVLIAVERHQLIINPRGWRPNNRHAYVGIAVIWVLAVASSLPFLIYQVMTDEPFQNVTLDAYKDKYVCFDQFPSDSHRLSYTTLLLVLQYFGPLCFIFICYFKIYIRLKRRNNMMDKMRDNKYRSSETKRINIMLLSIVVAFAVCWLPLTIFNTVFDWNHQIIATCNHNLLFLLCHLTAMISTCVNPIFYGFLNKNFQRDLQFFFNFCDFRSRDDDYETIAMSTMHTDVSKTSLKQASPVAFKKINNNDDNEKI

Progesterone receptor = biological target: T5, Progesterone receptor (Bos taurus, UniProt Q690N0); assay: DRUGMATRIX: Progesterone radioligand binding (ligand: [3H] R-5020); format: tissue-based, Uterus; settings: Not Active = under 50% inhibition at 10 µM
T5 sequence (Q690N0 whole entry): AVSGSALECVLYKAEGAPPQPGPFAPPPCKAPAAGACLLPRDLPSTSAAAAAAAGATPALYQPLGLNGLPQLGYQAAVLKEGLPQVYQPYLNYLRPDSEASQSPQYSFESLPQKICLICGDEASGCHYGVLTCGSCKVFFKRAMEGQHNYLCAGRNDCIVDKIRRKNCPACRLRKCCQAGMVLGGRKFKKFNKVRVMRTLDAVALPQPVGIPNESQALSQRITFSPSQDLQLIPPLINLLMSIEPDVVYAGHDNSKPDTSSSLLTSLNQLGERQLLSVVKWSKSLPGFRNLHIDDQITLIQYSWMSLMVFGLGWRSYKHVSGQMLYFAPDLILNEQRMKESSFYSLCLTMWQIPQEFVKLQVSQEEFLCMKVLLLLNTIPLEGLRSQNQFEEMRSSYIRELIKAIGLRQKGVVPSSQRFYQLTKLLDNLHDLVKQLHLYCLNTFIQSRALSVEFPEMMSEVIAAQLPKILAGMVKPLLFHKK

[8] = biological target: Protein phosphatase 3 catalytic subunit alpha (Homo sapiens, UniProt Q08209); parameters: species or system Escherichia coli
Cytochrome P450 2C9 = Cytochrome P450 2C9 (Homo sapiens, UniProt P11712); settings: bti-tn-5b1-4; further: in other assays of this panel Not Active means under 50% inhibition at 10 µM
Chain of Cytochrome P450 2C9 (P11712 whole entry): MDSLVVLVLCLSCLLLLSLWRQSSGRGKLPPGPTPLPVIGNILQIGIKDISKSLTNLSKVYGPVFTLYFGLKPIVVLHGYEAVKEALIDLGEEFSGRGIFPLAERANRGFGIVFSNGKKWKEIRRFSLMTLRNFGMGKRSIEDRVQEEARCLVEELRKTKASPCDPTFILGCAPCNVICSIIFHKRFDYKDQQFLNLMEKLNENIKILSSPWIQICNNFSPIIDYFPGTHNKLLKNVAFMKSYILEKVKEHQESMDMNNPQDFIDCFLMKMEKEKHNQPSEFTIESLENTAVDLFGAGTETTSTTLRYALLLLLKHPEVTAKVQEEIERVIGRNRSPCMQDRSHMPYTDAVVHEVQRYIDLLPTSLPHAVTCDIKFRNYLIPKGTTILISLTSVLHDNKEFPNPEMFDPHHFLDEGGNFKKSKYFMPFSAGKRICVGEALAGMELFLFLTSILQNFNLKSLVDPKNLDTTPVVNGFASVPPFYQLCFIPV

Chain of Beta-2 adrenergic receptor (P07550 whole entry): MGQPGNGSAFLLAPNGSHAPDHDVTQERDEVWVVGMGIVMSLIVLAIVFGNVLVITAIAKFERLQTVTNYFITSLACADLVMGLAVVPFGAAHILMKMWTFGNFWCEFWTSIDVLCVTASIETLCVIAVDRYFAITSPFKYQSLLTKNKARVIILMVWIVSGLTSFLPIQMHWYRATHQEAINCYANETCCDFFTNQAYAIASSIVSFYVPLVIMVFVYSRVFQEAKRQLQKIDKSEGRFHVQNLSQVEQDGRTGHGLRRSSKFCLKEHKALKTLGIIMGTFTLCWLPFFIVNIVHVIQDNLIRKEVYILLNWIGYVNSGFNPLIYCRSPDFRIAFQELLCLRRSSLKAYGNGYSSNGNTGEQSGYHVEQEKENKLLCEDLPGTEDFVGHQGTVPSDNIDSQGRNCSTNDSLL

SMILES: Cc1ccccc1N1CCN(CCc2nnc3n2CCCC3)CC1 [DAPIPRAZOLE]
- IC50 [1]: Not Active
- IC50 [2]: Not Active
- Ki [2]: Not Active
- IC50 [3]: Not Active
- IC50 [4]: Not Active
- IC50 [5]: Not Active
- Ki [5]: Not Active
- IC50 (Melanocortin receptor 5): Not Active
- IC50 [6]: Not Active
- IC50 [7]: Not Active
- IC50 (Progesterone receptor): Not Active
- IC50 [8]: Not Active
- IC50 (Cytochrome P450 2C9): Not Active
- Ki (Cytochrome P450 2C9): Not Active

SMILES: Oc1c(Cl)cc(Cl)cc1Sc1cc(Cl)cc(Cl)c1O [BITHIONOL]
- IC50 [1]: Not Active
- IC50 [2]: Not Active
- Ki [2]: Not Active
- IC50 [3]: Not Active
- IC50 [4]: Not Active
- IC50 [5]: Not Active
- Ki [5]: Not Active
- IC50 (Melanocortin receptor 5): Not Active
- IC50 [6]: Not Active
- IC50 [7]: Not Active
- IC50 (Progesterone receptor): Not Active
- IC50 [8]: Not Active
- IC50 (Cytochrome P450 2C9): Not Active
- Ki (Cytochrome P450 2C9): Not Active

SMILES: CC(/C=C1\SC(=S)N(CC(=O)O)C1=O)=C\c1ccccc1
- IC50 [1]: Not Active
- IC50 [2]: Not Active
- Ki [2]: Not Active
- IC50 [3]: Not Active
- IC50 [4]: Not Active
- IC50 [5]: Not Active
- Ki [5]: Not Active
- IC50 (Melanocortin receptor 5): Not Active
- IC50 [6]: Not Active
- IC50 [7]: Not Active
- IC50 (Progesterone receptor): Not Active
- IC50 [8]: Not Active
- IC50 (Cytochrome P450 2C9): Not Active
- Ki (Cytochrome P450 2C9): Not Active

SMILES: CC(=O)O[C@]1(C(C)=O)CC[C@H]2[C@@H]3C=C(Cl)C4=CC(=O)CC[C@]4(C)[C@H]3CC[C@@]21C [CHLORMADINONE ACETATE]
- IC50 [1]: Not Active
- IC50 [2]: Not Active
- Ki [2]: Not Active
- IC50 [3]: Not Active
- IC50 [4]: Not Active
- IC50 [5]: Not Active
- Ki [5]: Not Active
- IC50 (Melanocortin receptor 5): Not Active
- IC50 [6]: Not Active
- IC50 [7]: Not Active
- IC50 (Progesterone receptor; read-out: IC50): 5.26 nM
- Ki (Progesterone receptor; read-out: Ki): 0.687 nM
- IC50 [8]: Not Active
- IC50 (Cytochrome P450 2C9): Not Active
- Ki (Cytochrome P450 2C9): Not Active

SMILES: NCC[C@H](O)C(=O)N[C@@H]1C[C@H](N)[C@@H](O[C@H]2O[C@H](CN)[C@@H](O)[C@H](O)[C@H]2O)[C@H](O)[C@H]1O[C@H]1O[C@H](CO)[C@@H](O)[C@H](N)[C@H]1O [AMIKACIN]
- IC50 [1]: Not Active
- IC50 [2]: Not Active
- Ki [2]: Not Active
- IC50 [3]: Not Active
- IC50 [4]: Not Active
- IC50 [5]: Not Active
- Ki [5]: Not Active
- IC50 (Melanocortin receptor 5): Not Active
- IC50 [6]: Not Active
- IC50 [7]: Not Active
- IC50 (Progesterone receptor): Not Active
- IC50 [8]: Not Active
- IC50 (Cytochrome P450 2C9): Not Active
- Ki (Cytochrome P450 2C9): Not Active

SMILES: C=C1C(=O)O[C@@H]2C3O[C@]3(C)CC/C=C(\C)CC[C@@H]12 (stereo partly specified)
- IC50 [1]: Not Active
- IC50 [2]: Not Active
- Ki [2]: Not Active
- IC50 [3]: Not Active
- IC50 [4]: Not Active
- IC50 [5]: Not Active
- Ki [5]: Not Active
- IC50 (Melanocortin receptor 5): Not Active
- IC50 [6]: Not Active
- IC50 [7]: Not Active
- IC50 (Progesterone receptor): Not Active
- IC50 [8]: Not Active
- IC50 (Cytochrome P450 2C9): Not Active
- Ki (Cytochrome P450 2C9): Not Active

SMILES: NCC1(CC(=O)O)CCCCC1 [GABAPENTIN]
- IC50 [1]: Not Active
- IC50 [2]: Not Active
- Ki [2]: Not Active
- IC50 [3]: Not Active
- IC50 [4]: Not Active
- IC50 [5]: Not Active
- Ki [5]: Not Active
- IC50 (Melanocortin receptor 5): Not Active
- IC50 [6]: Not Active
- IC50 [7]: Not Active
- IC50 (Progesterone receptor): Not Active
- IC50 [8]: Not Active
- IC50 (Cytochrome P450 2C9): Not Active
- Ki (Cytochrome P450 2C9): Not Active

SMILES: Brc1ccccc1 [BROMOBENZENE]
- IC50 [1]: Not Active
- IC50 [2]: Not Active
- Ki [2]: Not Active
- IC50 [3]: Not Active
- IC50 [4]: Not Active
- IC50 [5]: Not Active
- Ki [5]: Not Active
- IC50 (Melanocortin receptor 5): Not Active
- IC50 [6]: Not Active
- IC50 [7]: Not Active
- IC50 (Progesterone receptor): Not Active
- IC50 [8]: Not Active
- IC50 (Cytochrome P450 2C9): Not Active
- Ki (Cytochrome P450 2C9): Not Active

SMILES: CC(=O)CCCCn1c(=O)c2c(ncn2C)n(C)c1=O [PENTOXIFYLLINE]
- IC50 [1]: Not Active
- IC50 [2]: Not Active
- Ki [2]: Not Active
- IC50 [3]: Not Active
- IC50 [4]: Not Active
- IC50 [5]: Not Active
- Ki [5]: Not Active
- IC50 (Melanocortin receptor 5): Not Active
- IC50 [6]: Not Active
- IC50 [7]: Not Active
- IC50 (Progesterone receptor): Not Active
- IC50 [8]: Not Active
- IC50 (Cytochrome P450 2C9): Not Active
- Ki (Cytochrome P450 2C9): Not Active

SMILES: Cc1c(-c2ccccc2)oc2c(C(=O)OCCN3CCCCC3)cccc2c1=O [FLAVOXATE]
- IC50 [1]: Not Active
- IC50 [2]: Not Active
- Ki [2]: Not Active
- IC50 [3]: Not Active
- IC50 [4]: Not Active
- IC50 [5]: Not Active
- Ki [5]: Not Active
- IC50 (Melanocortin receptor 5): Not Active
- IC50 [6]: Not Active
- IC50 [7]: Not Active
- IC50 (Progesterone receptor): Not Active
- IC50 [8]: Not Active
- IC50 (Cytochrome P450 2C9): Not Active
- Ki (Cytochrome P450 2C9): Not Active
